In patent US12077503B2, “Substituted cyclic amides and their use as herbicides” (FMC CORPORATION, priority 2015, dated 2024):

How the values were obtained:
Type in all cases: in vivo
[1] = tested on: velvetleaf (Abutilon theophrasti); assay: Test G Post-Emergence Protocol; conditions: Abutilon theophrasti, post-emergence, 312 h; for pest or weed control at 15.625 g/ha: 15.625 g ai/ha, evaluated after 13 days (100=total damage to plant; 0=no damage to plant), read-out: Velvetleaf damage rating; for pest or weed control at 62.5 g/ha: 62.5 g ai/ha, read-out: Velvetleaf damage rating (100=total damage to plant; 0=no damage to plant); for pest or weed control at 62.5 g/ha / pest or weed control at 250 g/ha: evaluated after 13 days; for pest or weed control at 250 g/ha: 250 g ai/ha, read-out: damage to plant, Velvetleaf (100=total damage to plant; 0=no damage to plant)
In short: (§1)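 Values are percent visual injury at 13 days after treatment (0 none, 100 total). Treatment was a post-emergence spray at 15.625, 62.5 or 250 g/ha on 8-day-old pot plants kept at 24/16 °C.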

corn (Zea mays) [2] = assay: Test G Post-Emergence Protocol; conditions: Zea mays, post-emergence, 312 h; for plant injury at 15.625 g/ha: 15.625 g ai/ha, evaluated after 13 days (100=total damage to plant; 0=no damage to plant), read-out: Corn damage rating; for plant injury at 62.5 g/ha: 62.5 g ai/ha, read-out: Corn damage rating (100=total damage to plant; 0=no damage to plant); for plant injury at 62.5 g/ha / plant injury at 250 g/ha: evaluated after 13 days; for plant injury at 250 g/ha: 250 g ai/ha, read-out: damage to plant, Corn (100=total damage to plant; 0=no damage to plant)
In short: as §1

[3] = tested on: redroot pigweed (Amaranthus retroflexus); assay: Test G Post-Emergence Protocol; conditions: Amaranthus retroflexus, post-emergence, 312 h; for pest or weed control at 15.625 g/ha: 15.625 g ai/ha, evaluated after 13 days (100=total damage to plant; 0=no damage to plant), read-out: Pigweed, Redroot damage rating; for pest or weed control at 62.5 g/ha: 62.5 g ai/ha, read-out: Pigweed, Redroot damage rating (100=total damage to plant; 0=no damage to plant); for pest or weed control at 62.5 g/ha / pest or weed control at 250 g/ha: evaluated after 13 days; for pest or weed control at 250 g/ha: 250 g ai/ha, read-out: damage to plant, Pigweed, Redroot (100=total damage to plant; 0=no damage to plant)
In short: as §1

[4] = tested on: giant foxtail (Setaria faberi); assay: Test G Post-Emergence Protocol; conditions: Setaria faberi, post-emergence, 312 h; for pest or weed control at 15.625 g/ha: 15.625 g ai/ha, evaluated after 13 days (100=total damage to plant; 0=no damage to plant), read-out: Foxtail, Giant damage rating; for pest or weed control at 62.5 g/ha: 62.5 g ai/ha, read-out: Foxtail, Giant damage rating (100=total damage to plant; 0=no damage to plant); for pest or weed control at 62.5 g/ha / pest or weed control at 250 g/ha: evaluated after 13 days; for pest or weed control at 250 g/ha: 250 g ai/ha, read-out: damage to plant, Foxtail, Giant (100=total damage to plant; 0=no damage to plant)
In short: as §1

[5] = tested on: barnyardgrass (Echinochloa crus-galli); assay: Test G Post-Emergence Protocol; conditions: Echinochloa crus-galli, post-emergence, 312 h; for pest or weed control at 15.625 g/ha: 15.625 g ai/ha, evaluated after 13 days (100=total damage to plant; 0=no damage to plant), read-out: Barnyardgrass damage rating; for pest or weed control at 62.5 g/ha: 62.5 g ai/ha, read-out: Barnyardgrass damage rating (100=total damage to plant; 0=no damage to plant); for pest or weed control at 62.5 g/ha / pest or weed control at 250 g/ha: evaluated after 13 days; for pest or weed control at 250 g/ha: 250 g ai/ha, read-out: damage to plant, Barnyardgrass (100=total damage to plant; 0=no damage to plant)
In short: as §1

[6] = tested on: ivy-leaved morning glory (Ipomoea hederacea); assay: Test G Post-Emergence Protocol; conditions: Ipomoea, post-emergence, 312 h; for pest or weed control at 15.625 g/ha: 15.625 g ai/ha, evaluated after 13 days (100=total damage to plant; 0=no damage to plant), read-out: Morningglory, Ivy-leaved damage rating; for pest or weed control at 62.5 g/ha: 62.5 g ai/ha, read-out: Morningglory, Ivy-leaved damage rating (100=total damage to plant; 0=no damage to plant); for pest or weed control at 62.5 g/ha / pest or weed control at 250 g/ha: evaluated after 13 days; for pest or weed control at 250 g/ha: 250 g ai/ha, read-out: damage to plant, Morningglory, Ivy-leaved (100=total damage to plant; 0=no damage to plant)
In short: as §1

[7] = tested on: velvetleaf (Abutilon theophrasti); assay: Test G Pre-Emergence Protocol; conditions: Abutilon theophrasti, pre-emergence, 312 h, evaluated after 13 days; for pest or weed control at 15.625 g/ha: 15.625 g ai/ha; for pest or weed control at 15.625 g/ha / pest or weed control at 250 g/ha: read-out: Velvetleaf damage rating (100=total damage to plant; 0=no damage to plant); for pest or weed control at 62.5 g/ha: 62.5 g ai/ha, 100=total damage to plant, 0=no damage to plant, read-out: plant damage rating, Velvetleaf; for pest or weed control at 250 g/ha: 250 g ai/ha
In short: (§2)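 Spraying took place one day after sowing, at 15.625, 62.5 or 250 g/ha, using an acetone/water (50:50) spray solution containing 0.5% Tween 20. Plants were kept under glasshouse conditions (24/16 °C, 14 h light, 65% humidity, watered twice daily), and injury was rated 0–100 at day 13.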

corn (Zea mays) [8] = assay: Test G Pre-Emergence Protocol; conditions: Zea mays, pre-emergence, 312 h, evaluated after 13 days; for plant injury at 15.625 g/ha: 15.625 g ai/ha; for plant injury at 15.625 g/ha / plant injury at 250 g/ha: read-out: Corn damage rating (100=total damage to plant; 0=no damage to plant); for plant injury at 62.5 g/ha: 62.5 g ai/ha, 100=total damage to plant, 0=no damage to plant, read-out: plant damage rating, Corn; for plant injury at 250 g/ha: 250 g ai/ha
In short: as §2

[9] = tested on: redroot pigweed (Amaranthus retroflexus); assay: Test G Pre-Emergence Protocol; conditions: Amaranthus retroflexus, pre-emergence, 312 h, evaluated after 13 days; for pest or weed control at 15.625 g/ha: 15.625 g ai/ha; for pest or weed control at 15.625 g/ha / pest or weed control at 250 g/ha: read-out: Pigweed, Redroot damage rating (100=total damage to plant; 0=no damage to plant); for pest or weed control at 62.5 g/ha: 62.5 g ai/ha, 100=total damage to plant, 0=no damage to plant, read-out: plant damage rating, Pigweed, Redroot; for pest or weed control at 250 g/ha: 250 g ai/ha
In short: as §2

[10] = tested on: giant foxtail (Setaria faberi); assay: Test G Pre-Emergence Protocol; conditions: Setaria faberi, pre-emergence, 312 h, evaluated after 13 days; for pest or weed control at 15.625 g/ha: 15.625 g ai/ha; for pest or weed control at 15.625 g/ha / pest or weed control at 250 g/ha: read-out: Foxtail, Giant damage rating (100=total damage to plant; 0=no damage to plant); for pest or weed control at 62.5 g/ha: 62.5 g ai/ha, 100=total damage to plant, 0=no damage to plant, read-out: plant damage rating, Foxtail, Giant; for pest or weed control at 250 g/ha: 250 g ai/ha
In short: as §2

[11] = tested on: barnyardgrass (Echinochloa crus-galli); assay: Test G Pre-Emergence Protocol; conditions: Echinochloa crus-galli, pre-emergence, 312 h, evaluated after 13 days; for pest or weed control at 15.625 g/ha: 15.625 g ai/ha, read-out: Barnyard grass damage rating (100=total damage to plant; 0=no damage to plant); for pest or weed control at 62.5 g/ha: 62.5 g ai/ha, 100=total damage to plant, 0=no damage to plant, read-out: plant damage rating, Barnyardgrass; for pest or weed control at 250 g/ha: 250 g ai/ha, read-out: Barnyardgrass damage rating (100=total damage to plant; 0=no damage to plant)
In short: as §2

[12] = tested on: ivy-leaved morning glory (Ipomoea hederacea); assay: Test G Pre-Emergence Protocol; conditions: Ipomoea, pre-emergence, 312 h, evaluated after 13 days; for pest or weed control at 15.625 g/ha: 15.625 g ai/ha, read-out: Morning-glory, Ivy-leaved damage rating (100=total damage to plant; 0=no damage to plant); for pest or weed control at 62.5 g/ha: 62.5 g ai/ha, 100=total damage to plant, 0=no damage to plant, read-out: plant damage rating, Morningglory, Ivy-leaved; for pest or weed control at 250 g/ha: 250 g ai/ha, read-out: Morningglory, Ivy-leaved damage rating (100=total damage to plant; 0=no damage to plant)
In short: as §2

SMILES	pest or weed control at 15.625 g/ha [1] [%]	pest or weed control at 62.5 g/ha [1] [%]	pest or weed control at 250 g/ha [1] [%]	plant injury at 15.625 g/ha (corn (Zea mays) [2]) [%]	plant injury at 62.5 g/ha (corn (Zea mays) [2]) [%]	plant injury at 250 g/ha (corn (Zea mays) [2]) [%]	pest or weed control at 15.625 g/ha [3] [%]	pest or weed control at 62.5 g/ha [3] [%]	pest or weed control at 250 g/ha [3] [%]	pest or weed control at 15.625 g/ha [4] [%]	pest or weed control at 62.5 g/ha [4] [%]	pest or weed control at 250 g/ha [4] [%]	pest or weed control at 15.625 g/ha [5] [%]	pest or weed control at 62.5 g/ha [5] [%]	pest or weed control at 250 g/ha [5] [%]	pest or weed control at 15.625 g/ha [6] [%]	pest or weed control at 62.5 g/ha [6] [%]	pest or weed control at 250 g/ha [6] [%]	pest or weed control at 15.625 g/ha [7] [%]	pest or weed control at 62.5 g/ha [7] [%]	also measured
Cc1cc(Cl)ccc1NC(=O)[C@H]1C(=O)N(C)C[C@@H]1c1ccc(C(F)(F)F)cc1 (racemic) [Compound 1442]	0	0	0	0	0	0	0	0	0	0	0	0	0	0	0	0	0	0	0	0	pest or weed control at 250 g/ha [7]: 10%; plant injury at 15.625 g/ha (corn (Zea mays) [8]): 0%; plant injury at 62.5 g/ha (corn (Zea mays) [8]): 0%; plant injury at 250 g/ha (corn (Zea mays) [8]): 0%; pest or weed control at 15.625 g/ha [9]: 0%; pest or weed control at 62.5 g/ha [9]: 0%; pest or weed control at 250 g/ha [9]: 10%; pest or weed control at 15.625 g/ha [10]: 0%; pest or weed control at 62.5 g/ha [10]: 0%; pest or weed control at 250 g/ha [10]: 30%; pest or weed control at 15.625 g/ha [11]: 0%; pest or weed control at 62.5 g/ha [11]: 0%; pest or weed control at 250 g/ha [11]: 0%; pest or weed control at 15.625 g/ha [12]: 0%; pest or weed control at 62.5 g/ha [12]: 0%; pest or weed control at 250 g/ha [12]: 0%
CN1C[C@H](c2ccc(C(F)(F)F)cc2)[C@@H](C(=O)Nc2ccc(C(F)(F)F)c(F)c2F)C1=O (racemic) [Compound 1451]	0	0	0	0	0	0	0	0	0	0	0	0	0	0	0	0	0	0	0	0	pest or weed control at 250 g/ha [7]: 0%; plant injury at 15.625 g/ha (corn (Zea mays) [8]): 0%; plant injury at 62.5 g/ha (corn (Zea mays) [8]): 0%; plant injury at 250 g/ha (corn (Zea mays) [8]): 0%; pest or weed control at 15.625 g/ha [9]: 0%; pest or weed control at 62.5 g/ha [9]: 0%; pest or weed control at 250 g/ha [9]: 0%; pest or weed control at 15.625 g/ha [10]: 0%; pest or weed control at 62.5 g/ha [10]: 0%; pest or weed control at 250 g/ha [10]: 0%; pest or weed control at 15.625 g/ha [11]: 0%; pest or weed control at 62.5 g/ha [11]: 0%; pest or weed control at 250 g/ha [11]: 0%; pest or weed control at 15.625 g/ha [12]: 0%; pest or weed control at 62.5 g/ha [12]: 0%; pest or weed control at 250 g/ha [12]: 0%
